Laboratory results: patent US4421767A, “Compounds and methods for treating depression” (priority 1982, dated 1983)
Read-outs that look alike come from different tables or passages of the source.

Tested on: heart rate and blood pressure responses to tyramine
Format: in vivo, rat
Settings: for Tyramine Potentiation: 5 days, tyramine i.d.; for Tyramine Potentiation over and above that of carbidopa: figure in brackets
Protocol: (B) Rats were gavaged with saline or carbidopa given at dosage of 10 or 100 mg/kg. Thirty minutes later, the rats were gavaged with saline or AFHBA given at a dosage of 62.5 μg/kg. This treatment was repeated daily for 5 days. On the 6th day, the rats were anaesthetized and heart rate and blood pressure responses to tyramine (0.3-50 mg/kg, i.d.) were determined. Additionally, monoamines and MAO activity were determined in various tissues, including brain.

NC(C(=O)O)C(=CF)c1cccc(O)c1 (racemic) [AFHBA, 2-Amino-4-fluoro-3-(3'-hydroxyphenyl)-3-butenoic acid]
potentiation of the tyramine response, combination versus AFHBA alone (AFHBA 62.5 μg/kg + carbidopa 10 mg/kg): the potentiation did not exceed that of AFHBA given alone | Tyramine Potentiation (carbidopa 10000 μg/kg + AFHBA 62.5 μg/kg daily p.o.): 3.1 | Tyramine Potentiation over and above that of carbidopa (carbidopa 10000 μg/kg + AFHBA 62.5 μg/kg): 2.8 | Tyramine Potentiation (carbidopa 100000 μg/kg + AFHBA 62.5 μg/kg daily p.o.): 5.0 | Tyramine Potentiation over and above that of carbidopa (carbidopa 100000 μg/kg + AFHBA 62.5 μg/kg): 2.2 | Tyramine Potentiation (saline + AFHBA 62.5 μg/kg daily p.o.): 4.0
